Drawing on PubChem BioAssay (NCI), this text covers GI50 and TGI for six compounds.

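Method: 48-hour compound exposure of cells in 96-well plates, five concentrations, linear interpolation of endpoints. Abbreviation: GI50, concentration required for 50% inhibition of growth. TGI denotes the concentration required for complete inhibition of growth.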 Some results are limits rather than exact numbers.

Test systems include A498 renal; CAKI-1 renal; HCC-2998 colon; HL-60(TB) leukemia; MCF7 breast; MDA-MB-435; MOLT-4 leukemia; SF-295 CNS; SW-620 colon; TK-10 renal.
What all share (assay): DTP human tumour cell line panel, 48 h

In the case of `Cc1c(C(N)=O)sc2c1C(=O)N(Cc1ccccc1)C1=NN=C(c3ccc(Cl)cc3)CN12`, the GI50 with A498 renal was 2.88 µM; in the test on CAKI-1 renal, 1.17 µM; with HCC-2998 colon, 3.97 µM; in the test with HL-60(TB) leukemia, 2.59 µM; in the test with MCF7 breast it was 3.59 µM; with MDA-MB-435 it was 4.9 µM. Further, the GI50 with MOLT-4 leukemia was 2.36 µM; in the test with SF-295 CNS, 2.31 µM; in the test on SW-620 colon, 3.99 µM; in the test with TK-10 renal, 6.52 µM. Further, the TGI in the test with A498 renal was 12.7 µM; in the test on CAKI-1 renal, 10.3 µM; in the test on HCC-2998 colon, 17 µM; in the test with HL-60(TB) leukemia, 46.1 µM; in the test with MCF7 breast, 14.9 µM; with MDA-MB-435 it was 26.1 µM. For the same compound, the TGI in the test on MOLT-4 leukemia was 40.1 µM; in the test with SF-295 CNS, 14.7 µM; in the test with SW-620 colon it was 18.4 µM; in the test on TK-10 renal, 18.9 µM.

As to `COc1cc(NC(C)CCCNC2CN3CCC2CC3)c2ncccc2c1` (stereo not given), the GI50 is 2.05 µM with A498 renal; 13.4 µM with CAKI-1 renal; 11.1 µM in the test with HCC-2998 colon; 2.86 µM with HL-60(TB) leukemia; 1.64 µM in the test on MCF7 breast; 8.71 µM in the test with MDA-MB-435. Also, the GI50 is 12.8 µM in the test on MOLT-4 leukemia, 11.6 µM in the test on SF-295 CNS, 11.9 µM with SW-620 colon and 16.6 µM with TK-10 renal. For the same compound, the TGI in the test with A498 renal was 16.8 µM; in the test with CAKI-1 renal, 38.9 µM; in the test on HCC-2998 colon, 24.8 µM; in the test with HL-60(TB) leukemia it was 11 µM; with MCF7 breast, 3.58 µM; in the test on MDA-MB-435, 22 µM. In addition, the TGI was 31.8 µM in the test on MOLT-4 leukemia, 27.7 µM in the test on SF-295 CNS, 27.6 µM in the test on SW-620 colon and 31 µM in the test with TK-10 renal.

As to `O=C1Nc2ccccc2/C1=C/C(=O)c1coc2c1C(=O)c1ccccc1C2=O`, the GI50 in the test on A498 renal is 45.7 µM; in the test with CAKI-1 renal, 34.2 µM; in the test with HCC-2998 colon, above 100 µM; with HL-60(TB) leukemia it was above 100 µM; in the test on MCF7 breast, 74.7 µM; in the test with MDA-MB-435, above 100 µM. For the same compound, the GI50 in the test on MOLT-4 leukemia was 62.3 µM; with SF-295 CNS, above 100 µM; in the test with SW-620 colon, 99.6 µM; with TK-10 renal it was above 100 µM. The TGI in the test with A498 renal, in the test with CAKI-1 renal, in the test with HCC-2998 colon, with HL-60(TB) leukemia, with MCF7 breast and in the test with MDA-MB-435 was above 100 µM throughout. Also, the total growth inhibition concentration (TGI) in the test with MOLT-4 leukemia, with SF-295 CNS, in the test on SW-620 colon and in the test with TK-10 renal was above 100 µM each time.

`COc1c(C)c2c(c(O)c1C/C=C(\C)CCC(=O)O)C(=O)OC2`: the GI50 in the test on A498 renal was 0.42 µM; in the test on CAKI-1 renal, 0.134 µM; in the test with HCC-2998 colon it was 0.404 µM; in the test with HL-60(TB) leukemia, 0.639 µM; in the test with MCF7 breast it was 0.18 µM; in the test with MDA-MB-435, 0.32 µM. Moreover, the GI50 with MOLT-4 leukemia was 0.208 µM; in the test with SF-295 CNS, 0.278 µM; in the test with SW-620 colon, 0.167 µM; with TK-10 renal, 1.68 µM. In addition, the TGI in the test with A498 renal is above 100 µM; with CAKI-1 renal it was 14.7 µM; with HCC-2998 colon it was above 100 µM; with HL-60(TB) leukemia, above 100 µM; with MCF7 breast it was above 100 µM; in the test with MDA-MB-435 it was above 100 µM. The TGI with MOLT-4 leukemia, in the test on SF-295 CNS, in the test with SW-620 colon and in the test with TK-10 renal was above 100 µM in each case.

As for `CN[C@@H](C)C(=O)N[C@H](C(=O)N1CCC[C@H]1C(=O)Nc1snnc1-c1ccccc1)C1CCCCC1`, the GI50 with A498 renal is 19.5 µM; in the test with CAKI-1 renal, 68 µM; in the test on HCC-2998 colon, 25.6 µM; with HL-60(TB) leukemia, 21.7 µM; in the test with MCF7 breast, 59.1 µM; in the test with MDA-MB-435 it was 32.1 µM. The GI50 in the test with MOLT-4 leukemia is 36.6 µM; in the test on SF-295 CNS, 34.4 µM; with SW-620 colon, above 100 µM; with TK-10 renal, above 59.9 µM. The TGI in the test with A498 renal is 57.3 µM; in the test on CAKI-1 renal, above 100 µM; in the test with HCC-2998 colon, 60.8 µM; with HL-60(TB) leukemia it was 48.1 µM; with MCF7 breast, above 100 µM; in the test on MDA-MB-435, above 100 µM. For the same compound, the TGI in the test on MOLT-4 leukemia is above 100 µM; in the test on SF-295 CNS it was above 100 µM; in the test with SW-620 colon, above 100 µM; in the test with TK-10 renal, above 94.9 µM.

`c1ccc2[nH]c(-c3ccc(-c4nccc5c4[nH]c4ccccc45)cc3)nc2c1`: the GI50 is 11.4 µM in the test on A498 renal; 2.41 µM in the test with CAKI-1 renal; 3.96 µM with HCC-2998 colon; 2.03 µM with HL-60(TB) leukemia; 3.56 µM with MCF7 breast; 1.92 µM in the test on MDA-MB-435. Moreover, the GI50 in the test on MOLT-4 leukemia was 2.32 µM; with SF-295 CNS it was 1.92 µM; with SW-620 colon, 2.79 µM; in the test on TK-10 renal, 2.07 µM. In addition, the TGI in the test with A498 renal amounted to 25.5 µM; in the test with CAKI-1 renal it was 7.11 µM; in the test with HCC-2998 colon, 15.9 µM; with HL-60(TB) leukemia it was 4.59 µM; in the test with MCF7 breast, 17.2 µM; in the test with MDA-MB-435, 4.27 µM. In addition, the TGI is 6.11 µM in the test with MOLT-4 leukemia, 4 µM in the test with SF-295 CNS, 8.48 µM with SW-620 colon and 4.59 µM in the test on TK-10 renal.
